Legend:
Format in all cases: cell-based
[1] = target: T1, human recombinant prostanoid EP4 receptor (Homo sapiens, UniProt P35408); test: FLIPR Ca2+ signaling, PG antagonist activity, EP4; details: antagonism of standard agonist PGE2, HEK-293 EBNA stable cells with chimeric Gqs
T1 construct: expressed in transfected cells; co-transfected with chimeric Gqs-HA
Description: (§1) The above compounds were tested for PG antagonist activity as follows using human recombinant prostanoid receptor (DP1, EP1-4, FP, IP and TP) stable cell lines:
(§2) In order to measure the response of Gs and Gi coupled prostanoid receptors as a Ca^2+ signal, chimeric G protein cDNAs were used. Stable cell lines over-expressing human prostanoid DP1, EP1-4, FP, IP, and TP receptors were established as follows:
(§3) Briefly, human prostanoid DP1, EP2, and EP4 receptor cDNAs were co-transfected with chimeric Gqs cDNA containing a haemagglutanin (HA) epitope; human prostanoid EP3 receptors were co-transfected with chimeric Gqi-HA; human EP1, FP, IP, and TP receptor cDNAs were expressed with no exogenous G-proteins. Gqs and Gqi chimeric cDNAs (Molecular Devices, Sunnyvale, Calif., U.S.A.), as well as cDNAs of prostanoid receptors, were cloned into a pCEP4 vector with a hygromycin B selection marker. Transfection into HEK-293 EBNA (Epstein-Barr virus nuclear antigen) cells was achieved by the FuGENE 6 transfection Reagent (Roche Applied Science, Indianapolis, Ind., USA). Stable transfectants were selected according to hygromycin resistance. Because Gqs and Gqi contained an HA epitope, G-protein expression was detected by Western blotting analysis using anti-mouse HA monoclonal antibody and horseradish peroxidase (HRP)-conjugated secondary antibody, while functional expression of prostanoid receptors was detected by FLIPR screening (Matias et al., 2004). These stable cell lines were validated using previously published antagonists at 10 μM against serial dilutions of standard agonists by FLIPR functional assays for Ca^2− Signaling (as described below).
(§4) Ca^2+ signaling studies were performed using a FLIPR TETRA system (Molecular Devices, Sunnyvale, Calif., USA) in the 384-format. This is a high-throughput instrument for cell-based assays to monitor Ca^2+ signaling associated with GPCRs and ion channels. Cells were seeded at a density of 5×10^4 cells/well in BioCoat poly-D-lysine coated, black wall, clear bottom 384-well plates (BD Biosciences, Franklin lakes, N.J., USA) and allowed to attach overnight in an incubator at 37° C. The cells were then washed twice with HBSS-HEPES buffer (Hanks' balanced salt solution without bicarbonate and phenol red, 20 mM HEPES, pH 7.4) using an ELx405 Select CW Microplate Washer (BioTek, Winooski, Vt., USA). After 60 min of dye-loading in the dark using the Ca^2+-sensitive dye Fluo-4AM (Invitrogen, Carlsbad, Calif., USA), at a final concentration of 2×10^−6M, the plates were washed 4 times with HBSS-HEPES buffer to remove excess dye and leaving 50 μl of buffer in each well. The plates were then placed in the FLIPR TETRA instrument and allowed to equilibrate at 37° C. AGN-211377 was added in a 25 μl volume to each well to give final concentrations of 0.1 μM, 0.3 μM, 1 μM, 3 μM, 10 μM, and 30 μM; or 0.067 μM, 0.1 μM, 0.2 μM, 0.3 μM, 0.67 μM, and 1 μM for cells over-expressing TP receptors. After 4.5 minutes, a 7-point serial dilution of the standard agonist for the corresponding receptor, in a 25 μl volume was injected at the final concentrations from 10^−11M to 10^−5M in 10-fold serial dilution increments for cells expressing human recombinant DP1, EP1, EP2, EP3, EP4, FP, and IP receptors. The dose range for the standard agonist for human recombinant TP receptors was from 10^−12M to 10^−6M. HBSS-HEPES buffer was used as the negative control for the standard agonists. Cells were excited with LED (light emitting diode) excitation at 470-495 nm and emission was measured through an emission filter at 515-575 nm. Assay plates were read for 3.5 minutes using the FLIPR^TETRA. The peak increase in fluorescence intensity was recorded for each well. On each plate, negative controls, dose response of positive controls, and co-treatments of antagonist-agonist for each dose were in triplicates. Standard agonists were as follows: DP=BW 245C, EP1-EP4=PGE2, FP=17-phenyl-PGF2α, IP=Cicaprost, and TP=U-46619. […]

[2] = target: T2, human recombinant prostanoid EP1 receptor (Homo sapiens, UniProt P34995); test: FLIPR Ca2+ signaling, PG antagonist activity, EP1; details: antagonism of standard agonist PGE2, HEK-293 EBNA stable cells
T2 construct: expressed in transfected cells
T2 sequence (P34995 1-402): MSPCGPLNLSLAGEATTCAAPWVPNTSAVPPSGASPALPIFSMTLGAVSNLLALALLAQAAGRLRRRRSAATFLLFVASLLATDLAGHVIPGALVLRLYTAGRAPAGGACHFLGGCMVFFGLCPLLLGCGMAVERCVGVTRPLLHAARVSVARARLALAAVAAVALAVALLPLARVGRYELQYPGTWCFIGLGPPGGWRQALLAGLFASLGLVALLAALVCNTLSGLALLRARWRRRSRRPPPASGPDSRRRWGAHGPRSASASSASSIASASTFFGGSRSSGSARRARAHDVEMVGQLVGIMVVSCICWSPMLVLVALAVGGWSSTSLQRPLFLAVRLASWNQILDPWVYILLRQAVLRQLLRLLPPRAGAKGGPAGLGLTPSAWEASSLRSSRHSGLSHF
Description: as §1, §2, §3, §4

[3] = target: T3, human recombinant prostanoid TP receptor (Homo sapiens, UniProt P21731); test: FLIPR Ca2+ signaling, PG antagonist activity, TP; details: antagonism of standard agonist U-46619, HEK-293 EBNA stable cells
T3 construct: expressed in transfected cells
T3 sequence (P21731 1-343): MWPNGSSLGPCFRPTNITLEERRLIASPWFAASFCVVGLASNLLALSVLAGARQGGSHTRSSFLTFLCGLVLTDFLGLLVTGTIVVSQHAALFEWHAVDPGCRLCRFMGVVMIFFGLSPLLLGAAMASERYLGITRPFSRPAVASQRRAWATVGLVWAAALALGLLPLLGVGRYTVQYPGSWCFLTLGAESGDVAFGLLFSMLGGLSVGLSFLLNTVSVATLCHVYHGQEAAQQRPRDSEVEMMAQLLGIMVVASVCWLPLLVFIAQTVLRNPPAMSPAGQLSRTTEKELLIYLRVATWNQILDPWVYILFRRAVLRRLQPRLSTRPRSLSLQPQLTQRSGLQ
Description: as §1, §2, §3, §4

[4] = target: T4, human recombinant prostanoid IP receptor (Homo sapiens, UniProt P43119); test: FLIPR Ca2+ signaling, PG antagonist activity, IP; details: antagonism of standard agonist Cicaprost, HEK-293 EBNA stable cells
T4 construct: expressed in transfected cells
Description: as §1, §2, §3, §4

[5] = target: T5, human recombinant prostanoid EP2 receptor (Homo sapiens, UniProt P43116); test: FLIPR Ca2+ signaling, PG antagonist activity, EP2; details: antagonism of standard agonist PGE2, HEK-293 EBNA stable cells with chimeric Gqs
T5 construct: expressed in transfected cells; co-transfected with chimeric Gqs-HA
Description: as §1, §2, §3, §4

T1 sequence (P35408 whole entry): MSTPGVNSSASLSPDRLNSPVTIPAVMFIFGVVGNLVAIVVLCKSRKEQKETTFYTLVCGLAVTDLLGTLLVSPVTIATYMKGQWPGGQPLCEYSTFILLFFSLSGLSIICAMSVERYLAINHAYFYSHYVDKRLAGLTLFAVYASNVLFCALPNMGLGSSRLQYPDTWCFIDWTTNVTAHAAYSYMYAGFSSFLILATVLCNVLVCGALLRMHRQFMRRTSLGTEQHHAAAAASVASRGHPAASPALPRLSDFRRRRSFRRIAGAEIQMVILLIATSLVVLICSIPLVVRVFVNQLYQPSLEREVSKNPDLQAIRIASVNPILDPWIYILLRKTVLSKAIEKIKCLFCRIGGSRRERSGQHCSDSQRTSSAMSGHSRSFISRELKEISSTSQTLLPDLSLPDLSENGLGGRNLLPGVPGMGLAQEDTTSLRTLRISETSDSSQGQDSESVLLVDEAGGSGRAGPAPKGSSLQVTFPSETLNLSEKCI
T4 sequence (P43119 whole entry): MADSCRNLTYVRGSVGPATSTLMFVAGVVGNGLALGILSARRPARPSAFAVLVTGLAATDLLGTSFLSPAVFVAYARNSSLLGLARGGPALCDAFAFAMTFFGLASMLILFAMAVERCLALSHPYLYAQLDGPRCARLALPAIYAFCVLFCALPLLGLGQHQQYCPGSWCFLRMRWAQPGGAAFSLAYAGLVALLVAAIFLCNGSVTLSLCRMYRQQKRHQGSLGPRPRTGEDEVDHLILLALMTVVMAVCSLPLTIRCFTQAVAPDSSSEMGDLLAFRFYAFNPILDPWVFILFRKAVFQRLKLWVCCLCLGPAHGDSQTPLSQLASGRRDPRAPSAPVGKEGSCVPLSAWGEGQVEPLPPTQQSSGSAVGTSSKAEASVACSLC
T5 sequence (P43116 whole entry): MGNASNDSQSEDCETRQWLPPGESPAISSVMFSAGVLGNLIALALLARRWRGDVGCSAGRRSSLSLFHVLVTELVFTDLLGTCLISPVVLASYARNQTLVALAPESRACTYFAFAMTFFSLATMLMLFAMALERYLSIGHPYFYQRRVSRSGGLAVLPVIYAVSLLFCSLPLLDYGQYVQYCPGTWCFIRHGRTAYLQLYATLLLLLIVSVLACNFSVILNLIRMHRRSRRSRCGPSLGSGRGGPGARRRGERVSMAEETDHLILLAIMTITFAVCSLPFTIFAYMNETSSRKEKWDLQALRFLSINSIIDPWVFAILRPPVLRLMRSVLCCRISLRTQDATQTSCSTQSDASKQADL

SMILES | Kb [1] [nM] | Kb [2] [nM] | Kb [3] [nM] | Kb [4] [nM] | Kb [5] [nM]
CCC(CC)COc1ccc(Br)cc1Cn1ncc(CC(=O)O)c1C [Example 1, {1-[5-bromo-2-(2-ethyl-butoxy)-benzyl]-5-methyl-1H-pyrazol-4-yl}-acetic acid] | 100 | 170 | 3 | 4800 | ≥ 10000
CCC(CC)COc1ccc(Br)cc1Cn1ncc(C(=O)O)c1C [Example 2, 1-[5-bromo-2-(2-ethyl-butoxy)-benzyl]-5-methyl-1H-pyrazole-4-carboxylic acid] | 380 | 33 | 12 | 2400 | ≥ 10000
CCC(CC)COc1ccc(Br)cc1Cn1cc(C(=O)O)c(C)n1 [Example 3] | 1300 | 30 | 30 | 1400 | ≥ 10000
CCC(CC)COc1ccc(Cl)cc1Cn1cc(C(=O)O)cn1 [Example 4, 1-[5-chloro-2-(2-ethyl-butoxy)-benzyl]-1H-pyrazole-4-carboxylic acid] | 4800 | 140 | 100 | 3100 | ≥ 10000
CCC(CC)COc1ccc(Cl)cc1Cn1nc(C)c(C(=O)O)c1C [Example 5, 1-[5-chloro-2-(2-ethyl-butoxy)-benzyl]-3,5-dimethyl-1H-pyrazole-4-carboxylic acid] | 860 | 20 | 18 | 600 | ≥ 10000
CCCc1nn(Cc2cc(Cl)ccc2OCC(CC)CC)cc1C(=O)O [Example 6, 1-[5-chloro-2-(2-ethyl-butoxy)-benzyl]-3-propyl-1H-pyrazole-4-carboxylic acid] | 4900 | 1500 | 500 | ≥ 10000 | 8600
CCCc1c(C(=O)O)cnn1Cc1cc(Cl)ccc1OCC(CC)CC [Example 7, 1-[5-chloro-2-(2-ethyl-butoxy)-benzyl]-5-propyl-1H-pyrazole-4-carboxylic acid] | 3300 | 640 | 150 | 1800 | ≥ 10000
CCC(CC)COc1ccc(C(F)(F)F)cc1Cn1ncc(C(=O)O)c1C [Example 8, 1-[2-(2-ethyl-butoxy)-5-trifluoromethyl-benzyl]-5-methyl-1H-pyrazole-4-carboxylic acid] | 1600 | 40 | 45 | ≥ 10000 | ≥ 10000
CCC(CC)COc1ccc(C(F)(F)F)cc1Cn1cc(C(=O)O)c(C)n1 [Example 9, 1-[2-(2-ethyl-butoxy)-5-trifluoromethyl-benzyl]-3-methyl-1H-pyrazole-4-carboxylic acid] | ≥ 10000 | 440 | 440 | ≥ 10000 | ≥ 10000
CCC(CC)COc1ccc(Cl)cc1Cn1ncc(C(=O)O)c1C [Example 10, 1-[5-chloro-2-(2-ethyl-butoxy)-benzyl]-5-methyl-1H-pyrazole-4-carboxylic acid] | 500 | 50 | 6 | 1300 | ≥ 10000
Cc1c(C(=O)O)cnn1Cc1cc(Cl)ccc1OCC(C)C [Example 11, 1-(5-chloro-2-isobutoxy-benzyl)-5-methyl-1-pyrazole-4-carboxylic acid] | 3300 | 30 | 80 | 8300 | ≥ 10000
Cc1c(C(=O)O)cnn1Cc1cc(Cl)ccc1OCC1CCCC1 [Example 12, 1-(5-chloro-2-cyclopentylmethoxy-benzyl)-5-methyl-1H-pyrazole-4-carboxylic acid] | 600 | 30 | 40 | 2650 | ≥ 10000
Cc1c(C(=O)O)cnn1Cc1cc(Br)ccc1OCC(C)C [Example 13, 1-(5-bromo-2-isobutoxy-benzyl)-5-methyl-1H-pyrazole-4-carboxylic acid] | 2100 | 30 | 20 | 7700 | ≥ 10000
Cc1c(C(=O)O)cnn1Cc1cc(Br)ccc1OCC(C)(C)C [Example 14, 1-[5-bromo-2-(2,2-dimethyl-propoxy)-benzyl]-5-methyl-1H-pyrazole-4-carboxylic acid] | 1300 | 30 | 20 | ≥ 10000 | ≥ 10000
CCC(CC)COc1ccc(OC(F)(F)F)cc1Cn1ncc(C(=O)O)c1C [Example 15, 1-[2-(2-ethyl-butoxy)-5-trifluoromethoxy-benzyl]-5-methyl-1H-pyrazole-4-carboxylic acid] | 1500 | 45 | 8 | ≥ 10000 | ≥ 10000
CCC(CC)COc1ccc(Br)cc1Cn1ncc(C(=O)O)c1N [Example 16, 5-amino-1-[5-bromo-2-(2-ethyl-butoxy)-benzyl]-1H-pyrazole-4-carboxylic acid] | 300 | 60 | 50 | 5100 | ≥ 10000
